Assay results from patent US11311520B2, “Substituted dihydroimidazopyridinediones as MKNK1 and MKNK2 inhibitors” (Bayer Pharma Aktiengesellschaft, priority 2017, dated 2022).
Structures can show the parent of a compound that is named as a salt.

biological target: human full-length MKNK1 (Homo sapiens (Human), UniProt Q9BUB5, T344D); assay: MKNK1 kinase high ATP assay (TR-FRET); format: biochemical; conditions: 2 mM ATP, 15 min preincubation with enzyme, GST-MKNK1 (T344D)
Summary of the method: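 GST-tagged full-length human MKNK1 (1-424, T344D, baculovirus-expressed) preincubated 15 min at 22 °C with compound, then reacted 30 min at 22 °C with 2 mM ATP and 0.06 μM biotinylated peptide (final) in HEPES pH 7.5. Phospho-substrate by TR-FRET (665/622 nm ratio), normalised to no-inhibitor and no-enzyme controls.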

human full-length MKNK1, sequence (Q9BUB5 other isoform, or with tags, fused parts or gaps T344D): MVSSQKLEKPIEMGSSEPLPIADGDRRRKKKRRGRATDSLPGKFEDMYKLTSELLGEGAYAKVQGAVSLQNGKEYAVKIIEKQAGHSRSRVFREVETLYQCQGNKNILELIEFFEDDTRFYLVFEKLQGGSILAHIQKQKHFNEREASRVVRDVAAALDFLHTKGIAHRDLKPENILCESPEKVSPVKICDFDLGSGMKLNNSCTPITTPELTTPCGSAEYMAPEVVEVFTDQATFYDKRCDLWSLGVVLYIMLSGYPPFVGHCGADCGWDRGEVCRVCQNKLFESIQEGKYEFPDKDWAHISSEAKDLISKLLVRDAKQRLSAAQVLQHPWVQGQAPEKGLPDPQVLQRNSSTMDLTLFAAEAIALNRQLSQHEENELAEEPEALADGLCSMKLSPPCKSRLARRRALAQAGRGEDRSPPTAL

Going from `Cc1cc(Nc2ncnc3sc(C(=O)N4CCC(N(C)C)CC4)cc23)c(=O)n2c1C(=O)NC21CCC(F)(F)CC1` [Example 87, 6′-[(6-{[4-(Dimethylamino)piperidin-1-yl]carbonyl}thieno[2,3-d]pyrimidin-4-yl)amino]-4,4-difluoro-8′-methyl-2′H-spiro[cyclohexane-1,3′-imidazo[1,5-a]pyridine]-1′,5′-dione] to `Cc1cc(Nc2ncnc3sc(C(=O)N4C[C@H]5C[C@@H]4CO5)cc23)c(=O)n2c1C(=O)NC21CCC(F)(F)CC1` [Example 88, 4,4-Difluoro-8′-methyl-6′-({6-[(1R,4R)-2-oxa-5-azabicyclo[2.2.1]hept-5-ylcarbonyl]thieno[2,3-d]pyrimidin-4-yl}amino)-2′H-spiro[cyclohexane-1,3′-imidazo[1,5-a]pyridine]-1′,5′-dione], the IC50 falls from 23.1 nM to 13.5 nM (1.7-fold).

First: Cc1cc(Nc2ncnc3sccc23)c(=O)n2c1C(=O)NC21CCC(F)(F)CC1 [Example 89, 4,4-Difluoro-8′-methyl-6′-(thieno[2,3-d]pyrimidin-4-ylamino)-2′H-spiro[cyclohexane-1,3′-imidazo[1,5-a]pyridine]-1′,5′-dione]
Second: Cc1cc(Nc2ncnc3[nH]ccc23)c(=O)n2c1C(=O)NC21CCC(F)(F)CC1 [Example 90, 4,4-Difluoro-8′-methyl-6′-(7H-pyrrolo[2,3-d]pyrimidin-4-ylamino)-2′H-spiro[cyclohexane-1,3′-imidazo[1,5-a]pyridine]-1′,5′-dione]
The IC50 of the first is 18-fold higher: 12.8 nM for the first, 0.7 nM for the second. The second is the more potent here.

Going from `Cc1cc(Nc2ncnc3sc(C(=O)O)c(C)c23)c(=O)n2c1C(=O)NC21CCC(F)(F)CC1` [Example 93, 4-[(4,4-Difluoro-8′-methyl-1′,5′-dioxo-1′,5′-dihydro-2′H-spiro[cyclohexane-1,3′-imidazo[1,5-a]pyridin]-6′-yl)amino]-5-methylthieno[2,3-d]pyrimidine-6-carboxylic acid] to `Cc1cc(Nc2ncnc3sc(C(=O)O)c(C)c23)c(=O)n2c1C(=O)NC21CCCC1` [Example 95, 5-Methyl-4-[(8′-methyl-1′,5′-dioxo-1′,5′-dihydro-2′H-spiro[cyclopentane-1,3′-imidazo[1,5-a]pyridin]-6′-yl)amino]thieno[2,3-d]pyrimidine-6-carboxylic acid], the IC50 falls from 42 nM to 5.8 nM (7.2-fold). The second is the more potent here.

Going from `Cc1cc(Nc2ncnc(N)n2)c(=O)n2c1C(=O)NC21CCC(F)(F)CC1` [Example 94, 6′-[(4-Amino-1,3,5-triazin-2-yl)amino]-4,4-difluoro-8′-methyl-2′H-spiro[cyclohexane-1,3′-imidazo[1,5-a]pyridine]-1′,5′-dione] to `Cc1cc(Nc2ncnc3[nH]ncc23)c(=O)n2c1C(=O)NC21CCC(F)(F)CC1` [Example 105, 4,4-Difluoro-8′-methyl-6′-(1H-pyrazolo[3,4-d]pyrimidin-4-ylamino)-2′H-spiro[cyclohexane-1,3′-imidazo[1,5-a]pyridine]-1′,5′-dione], the IC50 falls from 27.8 nM to 8.3 nM (3.3-fold). The second is the more potent here.

`Cc1cc(Nc2ncnc3sc(C(=O)N4C[C@H]5C[C@@H]4CO5)cc23)c(=O)n2c1C(=O)NC21CCCC1` [Example 96, 8′-Methyl-6′-({6-[(1R,4R)-2-oxa-5-azabicyclo[2.2.1]hept-5-ylcarbonyl]thieno[2,3-d]pyrimidin-4-yl}amino)-2′H-spiro[cyclopentane-1,3′-imidazo[1,5-a]pyridine]-1′,5′-dione] and `Cc1cc(Nc2ncnc3sc(C(N)=O)cc23)c(=O)n2c1C(=O)NC21CCCC1` [Example 102, 4-[(8′-Methyl-1′,5′-dioxo-1′,5′-dihydro-2′H-spiro[cyclopentane-1,3′-imidazo[1,5-a]pyridin]-6′-yl)amino]thieno[2,3-d]pyrimidine-6-carboxamide] are within 1.5-fold of each other in IC50: 3.9 nM for the first, 5.7 nM for the second.

First: Cc1cc(Nc2ncnc3sc(C(N)=O)cc23)c(=O)n2c1C(=O)NC21CCCCC1 [Example 97, 4-[(8′-Methyl-1′,5′-dioxo-1′,5′-dihydro-2′H-spiro[cyclohexane-1,3′-imidazo[1,5-a]pyridin]-6′-yl)amino]thieno[2,3-d]pyrimidine-6-carboxamide]
Second: Cc1cc(Nc2ncnc3sc(C(N)=O)c(C)c23)c(=O)n2c1C(=O)NC21CCCC1 [Example 107, 5-Methyl-4-[(8′-methyl-1′,5′-dioxo-1′,5′-dihydro-2′H-spiro[cyclopentane-1,3′-imidazo[1,5-a]pyridin]-6′-yl)amino]thieno[2,3-d]pyrimidine-6-carboxamide]
The IC50 of the first is 22-fold lower: 5.1 nM for the first, 111 nM for the second. The first is the more potent here.

Going from `Cc1cc(Nc2ncnc3ccc(Cl)cc23)c(=O)n2c1C(=O)NC21CCCC1` [Example 98, 6′-[(6-Chloroquinazolin-4-yl)amino]-8′-methyl-2′H-spiro[cyclopentane-1,3′-imidazo[1,5-a]pyridine]-1′,5′-dione] to `Cc1cc(Nc2ncnc3cc(Cl)ccc23)c(=O)n2c1C(=O)NC21CCCCC1` [Example 108, 6′-[(7-Chloroquinazolin-4-yl)amino]-8′-methyl-2′H-spiro[cyclohexane-1,3′-imidazo[1,5-a]pyridine]-1′,5′-dione], the IC50 rises from 7.6 nM to 16.5 nM (2.2-fold).

`Cc1cc(Nc2ncnc3ccc(Cl)cc23)c(=O)n2c1C(=O)NC21CCC(F)(F)CC1` [Example 99, 6′-[(6-chloroquinazolin-4-yl)amino]-4,4-difluoro-8′-methyl-2′H-spiro[cyclohexane-1,3′-imidazo[1,5-a]pyridine]-1′,5′-dione] and `Cc1cc(Nc2ncnc3ccc(F)cc23)c(=O)n2c1C(=O)NC21CCCCC1` [Example 113, 6′-[(6-Fluoroquinazolin-4-yl)amino]-8′-methyl-2′H-spiro[cyclohexane-1,3′-imidazo[1,5-a]pyridine]-1′,5′-dione] are within 1.5-fold of each other in IC50: 18.8 nM for the first, 15.4 nM for the second.

Going from `Cc1cc(Nc2ncnc3scnc23)c(=O)n2c1C(=O)NC21CCCC1` [Example 100, 8′-Methyl-6′-([1,3]thiazolo[5,4-d]pyrimidin-7-ylamino)-2′H-spiro[cyclopentane-1,3′-imidazo[1,5-a]pyridine]-1′,5′-dione] to `Cc1cc(Nc2ncnc3scnc23)c(=O)n2c1C(=O)NC21CCC(F)(F)CC1` [Example 101, 4,4-Difluoro-8′-methyl-6′-([1,3]thiazolo[5,4-d]pyrimidin-7-ylamino)-2′H-spiro[cyclohexane-1,3′-imidazo[1,5-a]pyridine]-1′,5′-dione], the IC50 rises from 70.5 nM to 187 nM (2.7-fold). The first is the more potent here.

Compared with `Cc1cc(Nc2ncnc3c2CN(C(=O)OC(C)(C)C)C3)c(=O)n2c1C(=O)NC21CCCC1` [Example 103, tert-Butyl 4-[(8′-methyl-1′,5′-dioxo-1′,5′-dihydro-2′H-spiro[cyclopentane-1,3′-imidazo[1,5-a]pyridin]-6′-yl)amino]-5,7-dihydro-6H-pyrrolo[3,4-d]pyrimidine-6-carboxylate], `Cc1cc(Nc2ncnc3c2CN(C(=O)OC(C)(C)C)C3)c(=O)n2c1C(=O)NC21CCC(F)(F)CC1` [Example 104, tert-Butyl 4-[(4,4-difluoro-8′-methyl-1′,5′-dioxo-1′,5′-dihydro-2′H-spiro[cyclohexane-1,3′-imidazo[1,5-a]pyridin]-6′-yl)amino]-5,7-dihydro-6H-pyrrolo[3,4-d]pyrimidine-6-carboxylate] is 6.4-fold higher in IC50: 4.7 nM for the first, 30.2 nM for the second.

First: Cc1cc(Nc2ncnc3[nH]cnc23)c(=O)n2c1C(=O)NC21CCC(F)(F)CC1 [Example 106, 4,4-Difluoro-8′-methyl-6′-(9H-purin-6-ylamino)-2′H-spiro[cyclohexane-1,3′-imidazo[1,5-a]pyridine]-1′,5′-dione]
Second: Cc1cc(Nc2ncnc3c(F)c(F)ccc23)c(=O)n2c1C(=O)NC21CCCCC1 [Example 115, 6′-[(7,8-Difluoroquinazolin-4-yl)amino]-8′-methyl-2′H-spiro[cyclohexane-1,3′-imidazo[1,5-a]pyridine]-1′,5′-dione]
The IC50 of the first is 59-fold lower: 3.5 nM for the first, 208 nM for the second. The first is the more potent here.

First: Cc1cc(Nc2ncnc3cccc(Cl)c23)c(=O)n2c1C(=O)NC21CCCCC1 [Example 109, 6′-[(5-Chloroquinazolin-4-yl)amino]-8′-methyl-2′H-spiro[cyclohexane-1,3′-imidazo[1,5-a]pyridine]-1′,5′-dione]
Second: Cc1cc(Nc2ncnc3c(F)cccc23)c(=O)n2c1C(=O)NC21CCCCC1 [Example 111, 6′-[(8-Fluoroquinazolin-4-yl)amino]-8′-methyl-2′H-spiro[cyclohexane-1,3′-imidazo[1,5-a]pyridine]-1′,5′-dione]
The IC50 of the first is 51-fold lower: 10.2 nM for the first, 517 nM for the second.

Compared with `Cc1cc(Nc2ncnc3c(Cl)cc(Cl)cc23)c(=O)n2c1C(=O)NC21CCCCC1` [Example 110, 6′-[(6,8-Dichloroquinazolin-4-yl)amino]-8′-methyl-2′H-spiro[cyclohexane-1,3′-imidazo[1,5-a]pyridine]-1′,5′-dione], `Cc1cc(Nc2ncnc3cc(F)ccc23)c(=O)n2c1C(=O)NC21CCCCC1` [Example 112, 6′-[(7-Fluoroquinazolin-4-yl)amino]-8′-methyl-2′H-spiro[cyclohexane-1,3′-imidazo[1,5-a]pyridine]-1′,5′-dione] is 220-fold lower in IC50: 5580 nM for the first, 25.3 nM for the second.

Work on `Cc1cc(Nc2ncnc3cc(F)cc(F)c23)c(=O)n2c1C(=O)NC21CCCCC1` [Example 114, 6′-[(5,7-Difluoroquinazolin-4-yl)amino]-8′-methyl-2′H-spiro[cyclohexane-1,3′-imidazo[1,5-a]pyridine]-1′,5′-dione] yielded an IC50 of 8.6 nM.

same assay, conditions: 2 mM ATP, 15 min preincubation with enzyme, GST-MKNK1 (T344D), hydrochloride

With `Cc1cc(Nc2ncnc3[nH]ccc23)c(=O)n2c1C(=O)NC21CCC(F)(F)CC1` [Example 92, 4,4-Difluoro-8′-methyl-6′-(7H-pyrrolo[2,3-d]pyrimidin-4-ylamino)-2′H-spiro[cyclohexane-1,3′-imidazo[1,5-a]pyridine]-1′,5′-dione hydrochloride] the IC50 was 1.2 nM.

same assay, conditions: 2 mM ATP, 15 min preincubation with enzyme, GST-MKNK1 (T344D), methanesulfonate

In the case of `Cc1cc(Nc2ncnc3[nH]ccc23)c(=O)n2c1C(=O)NC21CCC(F)(F)CC1` [Example 91, 4,4-Difluoro-8′-methyl-6′-(7H-pyrrolo[2,3-d]pyrimidin-4-ylamino)-2′H-spiro[cyclohexane-1,3′-imidazo[1,5-a]pyridine]-1′,5′-dione methanesulfonate], the IC50 is reported as 1.1 nM.
